Test results as given in ChEMBL document CHEMBL3091392, “Chromenylchalcones with inhibitory effects on monoamine oxidase B” (Bioorg Med Chem, 2013).

Tests used:
[1] = biological target: T1, Amine oxidase [flavin-containing] B (Homo sapiens, UniProt P27338); assay: Inhibition of MAO-B (unknown origin) using p-tyramine substrate by HPLC method
T1 sequence (P27338 whole entry): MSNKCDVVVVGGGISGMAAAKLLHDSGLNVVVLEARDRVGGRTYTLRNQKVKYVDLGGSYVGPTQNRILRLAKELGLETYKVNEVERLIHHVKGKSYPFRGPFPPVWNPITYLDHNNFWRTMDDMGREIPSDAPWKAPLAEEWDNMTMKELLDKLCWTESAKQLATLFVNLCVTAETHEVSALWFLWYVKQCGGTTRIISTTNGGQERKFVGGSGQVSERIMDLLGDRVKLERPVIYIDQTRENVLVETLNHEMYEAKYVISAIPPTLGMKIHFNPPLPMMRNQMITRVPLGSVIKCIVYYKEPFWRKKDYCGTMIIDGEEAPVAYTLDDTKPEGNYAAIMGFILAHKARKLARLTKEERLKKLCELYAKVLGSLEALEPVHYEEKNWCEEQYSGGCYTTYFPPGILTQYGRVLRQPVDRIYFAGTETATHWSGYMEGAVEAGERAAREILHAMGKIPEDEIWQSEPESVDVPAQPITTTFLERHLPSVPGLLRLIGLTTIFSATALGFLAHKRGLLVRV

[2] = biological target: T1, Amine oxidase [flavin-containing] B; assay: Inhibition of MAO-B (unknown origin)
[3] = biological target: T1, Amine oxidase [flavin-containing] B; assay: Inhibition of human recombinant MAO-B expressed in insect cells at 10 uM by Amplex Red assay; conditions: read-out: INH
[4] = biological target: T1, Amine oxidase [flavin-containing] B; assay: Inhibition of human recombinant MAO-B expressed in insect cells by Amplex Red assay; type: cell-based

COc1ccccc1C(=O)/C=C/C1=Cc2cc(Br)ccc2OC1
IC50 [1]: 42.8 µM

O=c1c(Cc2ccc(Cl)cc2)coc2cc(Cl)cc(Cl)c12
IC50 [2]: 0.437 µM

COc1cccc(C(=O)/C=C/C2=Cc3cc(Br)ccc3OC2)c1
IC50 [1]: 35.9 µM

COc1ccc2c(c1)C=C(/C=C/C(=O)c1ccccc1OC)CO2
inhibition at 10 µM [3]: 91.6% | IC50 [4]: 0.32 µM | IC50 [1]: 13.7 µM

COc1cc(/C=C/C(=O)C2=Cc3cc(OC)ccc3OC2)cc(OC)c1
IC50 [1]: 18.3 µM

COc1cc(OC)cc(C(=O)/C=C/C2=Cc3cc(Br)ccc3OC2)c1
IC50 [1]: 16.7 µM
